In patent US9126945B2, “N-(3-carbamoylphenly)-1H-pyrazole-5-carboxamide derivatives and the use thereof for controlling animal pests” (BAYER INTELLECTUAL PROPERTY GMBH, priority 2011, dated 2015):

Key:
Myzus persicae = experiment: Myzus test (MYZUPE spray treatment); type: in vivo; conditions: Myzus persicae, 144 h, MYZUPE, 6 dat
Protocol: Myzus test (Myzupe spray treatment)
After 6 days, the efficacy in % is determined.
Myzus Test (MYZUPE Spray Treatment)

Ctenocephalides felis = Ctenocephalides felis oral (CTECFE); type: in vivo; conditions: Ctenocephalides felis, po, 48 h, CTECFE, 2 dat
Protocol: Ctenocephalides felis Oral (CTECFE)
Solvent: 1 part by weight of dimethyl sulphoxide
For the purpose of producing a suitable preparation of active compound, 10 mg of active compound are mixed with 0.5 ml of dimethyl sulphoxide. A portion of the concentrate is diluted with citrated cattle blood, and the desired concentration is prepared.
(§1) About 20 unfed adult fleas (Ctenocephalides felis) are placed into a chamber which is closed at the top and bottom with gauze. A metal cylinder whose bottom end is closed with parafilm is placed onto the chamber. The cylinder contains the blood/active compound preparation, which can be taken up by the fleas through the parafilm membrane. After 2 days, the kill in % is determined.
For the purpose of preparing an appropriate active compound formulation, 10 mg of active compound are mixed with 0.5 ml of dimethyl sulphoxide. A portion of the concentrate is diluted with citrated cattle blood, and the desired concentration is prepared.
as §1, with “membrane.” for “membrane. After 2 days, the kill in % is determined.”

Musca domestica = Musca domestica test (MUSCDO); type: in vivo; conditions: Musca domestica, 48 h, MUSCDO, 2 dat
Protocol: Musca domestica Test (MUSCDO)
(§2) Solvent: dimethyl sulphoxide
Vessels containing a sponge treated with the active compound preparation of the desired concentration are populated with adult Musca domestica.
After 2 days, the kill in % is determined.
Vessels containing a sponge treated with the active compound formulation of the desired concentration are populated with adult Musca domestica.
After the desired period of time, the kill in % is determined.

Boophilus microplus = Boophilus microplus test (BOOPMI injection); type: in vivo; conditions: BOOPMI injection, 7 dat
Protocol: Boophilus microplus Test (BOOPMI Injection)
as §2
The active compound solution is injected into the abdomen (Boophilus microplus), and the animals are transferred into dishes and stored in a climate-controlled room. The activity is assessed by laying of fertile eggs.
The active compound solution is injected into the abdomen (Boophilus microplus), and the animals are transferred into dishes and stored in a climate-controlled room.
The activity is assessed by laying of fertile eggs. 100% means that none of the ticks has laid any fertile eggs.

Plutella xylostella = Plutella xylostella spray test (PLUTMA); type: in vivo; conditions: 168 h, 7 dat
Source text: Plutella xylostella Spray Test (PLUTMA)
(§3) Solvent: 7 parts by weight of dimethylformamide
(§4) Emulsifier: 2 parts by weight of alkylaryl polyglycol ether
(§5) If the addition of ammonium salts or/and penetrants is required, these are in each case added in a concentration of 1000 ppm to the solution of the preparation.

Spodoptera frugiperda [1] = experiment: Spodoptera frugiperda spray test (SPODFR), cotton leaves, ppm; type: in vivo; conditions: 168 h, 7 dat
Source text: Spodoptera frugiperda Spray Test (SPODFR)
as §3, §4, §5
Cotton leaves (Gossypium hirsutum) are sprayed with an active compound formulation of the desired concentration and populated with caterpillars of the armyworm (Spodoptera frugiperda).

Heliothis armigera = Heliothis armigera spray test (HELIAR); type: in vivo; conditions: Helicoverpa armigera, 168 h, 7 dat
Source text: Heliothis armigera Spray Test (HELIAR)
as §3, §4, §5

Tetranychus urticae = Tetranychus urticae spray test, OP-resistant (TETRUR), bean plants, ppm; type: in vivo; conditions: 168 h, 7 dat
Source text: Tetranychus urticae Spray Test, OP-Resistant (TETRUR)
as §3, §4, §5

Nilaparvata lugens = Nilaparvata lugens spray test (NILALU); type: in vivo; conditions: 168 h, 7 dat
Source text: Nilaparvata lugens Spray Test (NILALU)
as §5

[2] = system: Frankliniella occidentalis; experiment: Frankliniella occidentalis spray test (FRANOC); type: in vivo; conditions: 168 h, 500 g/ha, 7 dat
Source text: Frankliniella occidentalis Spray Test (FRANOC)
as §5

Phaedon cochleariae [3] = experiment: Phaedon test (PHAECO spray treatment), Chinese cabbage leaf discs; conditions: Phaedon cochleariae, in Brassica rapa, foliar, 168 h, read-out: % Activity dat
[4] = system: Boophilus microplus females of the SP-resistant Parkhurst strain; experiment: Boophilus microplus test (DIP); type: in vivo; conditions: Rhipicephalus microplus, 168 h; BOOPMI DIP; 20 ppm; 7 dat
Protocol: Boophilus microplus Test (DIP)
Test animals: adult engorged Boophilus microplus females of the SP-resistant Parkhurst strain
as §2
10 mg of active compound are dissolved in 0.5 ml of dimethyl sulphoxide. For the purpose of preparing a suitable formulation, the active compound solution is diluted with water to the concentration desired in each case.
This active compound preparation is pipetted into tubes. 8-10 ticks are transferred into a further tube with holes. The tube is immersed into the active compound formulation, and all ticks are completely wetted. After the liquid has rum off, the ticks are transferred to filter discs in plastic dishes and kept in a climatized room. The activity is assessed after 7 days by laying of fertile eggs. Eggs whose fertility is not outwardly visible are stored in glass tubes in a climate-controlled cabinet until the larvae hatch. An efficacy of 100% means that none of the ticks has laid any fertile eggs.
10 mg of active compound are dissolved in 0.5 ml of dimethyl sulphoxide. For the purpose of preparing a suitable formulation, the active compound solution is diluted with water to the concentration desired in each case (in ppm).
This active compound preparation is pipetted into tubes. 8-10 ticks are transferred into a further tube with holes. The tube is immersed into the active compound formulation, and all ticks are completely wetted. After the liquid has run out, the ticks are transferred onto filter discs in plastic dishes and stored in a climate-controlled room.
The activity is assessed after the desired time by laying of fertile eggs. Eggs whose fertility is not evident from the outside are kept in glass tubes in a climate-controlled cabinet until the larvae have hatched. An effect of 100% means that none of the ticks has laid any fertile eggs.

Phaedon cochleariae [5] = experiment: Phaedon cochleariae spray test (PHAECO), cabbage leaves, ppm; type: in vivo; conditions: 168 h, 7 dat
Source text: Phaedon cochleariae Spray Test (PHAECO)
as §3, §4, §5

Spodoptera frugiperda [6] = experiment: Spodoptera frugiperda test (SPODFR spray treatment), maize leaf discs; type: in vivo; conditions: Spodoptera frugiperda, foliar, 168 h; SPODFR; 100 g/ha; 7 dat
Source text: Spodoptera frugiperda Test (SPODFR Spray Treatment)

Liriomyza trifolii = Liriomyza trifolii spray test (LIRITR); type: in vivo; conditions: 168 h, 7 dat
Source text: Liriomyza trifolii Spray Test (LIRITR)
as §5

Work on `Cn1nc(C(F)(F)C(F)(F)F)c(C(F)(F)F)c1C(=O)Nc1ccc(Cl)c(C(=O)NC2CC2c2ccccc2)c1` (centres unmarked) [Ik-47] yielded an inhibition at 500 g/ha (Myzus persicae; 500 g/ha) of 0%, an inhibition at 20 ppm (Ctenocephalides felis; 20 ppm) of 50% and an inhibition at 100 ppm (Musca domestica) of 0%. The “% Activity dat” value (Boophilus microplus; 0.8 μg/animal) was 50%, the inhibition at 20 ppm (Plutella xylostella) was 0% and the inhibition at 20 ppm (Spodoptera frugiperda [1]) was 0%. It also gave an inhibition at 20 ppm (Heliothis armigera; 20 ppm) of 0%, an inhibition at 20 ppm (Tetranychus urticae; 20 ppm) of 30% and an inhibition at 500 g/ha (Nilaparvata lugens) of 0%. For the same compound, the inhibition at 500 g/ha [2] was 0% and the inhibition at 20 g/ha (Phaedon cochleariae [3]) was 0%.
With `CN(C(=O)c1c(C(F)(F)F)c(C(F)(F)C(F)(F)F)nn1C)c1ccc(Cl)c(C(=O)NC2CC2)c1` [Ik-132, reference compound] the inhibition at 100 g/ha (Myzus persicae) was 0%, the inhibition at 0.8 ppm (Ctenocephalides felis; 0.8 ppm) was 30% and the “% Activity dat” value (Boophilus microplus; 0.032 μg/animal) was 0%. For the same compound, the inhibition at 20 ppm [4] was 30%, the inhibition at 0.8 ppm (Phaedon cochleariae [5]; 0.8 ppm) was 5% and the inhibition at 20 ppm (Plutella xylostella) was 5%. For the same compound, the inhibition at 20 ppm (Spodoptera frugiperda [1]) was 50% and the inhibition at 4 ppm (Tetranychus urticae) was 30%.
With `C[C@H]1C[C@H]1NC(=O)c1cc(NC(=O)c2c(C(F)(F)F)c(C(F)(F)C(F)(F)F)nn2C)ccc1Cl` [Ik-279, reference compound] the inhibition at 100 g/ha (Spodoptera frugiperda [6]) was 50%, the inhibition at 20 g/ha (Myzus persicae; 20 g/ha) was 0% and the inhibition at 4 ppm (Tetranychus urticae) was 0%. For the same compound, the inhibition at 20 g/ha (Phaedon cochleariae [3]) was 0%.
In the case of `C[C@@H]1C[C@H]1NC(=O)c1cc(NC(=O)c2c(C(F)(F)F)c(C(F)(F)C(F)(F)F)nn2C)ccc1Cl` [Ik-280], the inhibition at 4 ppm (Phaedon cochleariae [5]; 4 ppm) is reported as 0%, the inhibition at 20 ppm (Plutella xylostella) is reported as 65% and the inhibition at 20 ppm (Spodoptera frugiperda [1]) is reported as 40%. It also gave an inhibition at 100 ppm (Heliothis armigera; 100 ppm) of 0% and an inhibition at 100 g/ha (Nilaparvata lugens; 100 g/ha) of 0%.
Compound `Cn1nc(C(F)(F)C(F)(F)F)c(C(F)(F)F)c1C(=O)Nc1ccc(Cl)c(C(=O)NC2(C(F)(F)F)CC2)c1` [Ik-296, reference compound] has an inhibition at 100 g/ha (Myzus persicae) of 0%, an inhibition at 500 g/ha (Nilaparvata lugens) of 0% and an inhibition at 500 g/ha [2] of 60%. It also gave an inhibition at 500 g/ha (Liriomyza trifolii) of 0%.
